Values quoted from earlier work as cited in US20110082127A1, “NEW INJECTABLE FORMULATIONS CONTAINING PROGESTERONE” (priority 2004, published 2011).

Conditions: stated by the known art

water solubility: 1.8 g/100 ml
SMILES: OC[C@H]1O[C@@H]2O[C@H]3[C@H](O)[C@@H](O)[C@@H](O[C@H]4[C@H](O)[C@@H](O)[C@@H](O[C@H]5[C@H](O)[C@@H](O)[C@@H](O[C@H]6[C@H](O)[C@@H](O)[C@@H](O[C@H]7[C@H](O)[C@@H](O)[C@@H](O[C@H]8[C@H](O)[C@@H](O)[C@@H](O[C@H]1[C@H](O)[C@H]2O)O[C@@H]8CO)O[C@@H]7CO)O[C@@H]6CO)O[C@@H]5CO)O[C@@H]4CO)O[C@@H]3CO [unsubstituted β-cyclodextrin, β-cyclodextrin]
